Measurements from patent US4563472A, “Iodoallyl and iodopropargyl substituted tetrazoles and anti-microbial compositions thereof” (Meiji Seika Kaisha, Ltd., priority 1982, dated 1986).
≈ marks a conversion by molar mass, not a printed value. Like-named read-outs stand apart in the source and are kept apart here.

Legend:
[1] = system: Cryptococcus neoformans Cr-1; test: Antifungal Activity (in Medicinal Field), MIC; assay type: cell-based; conditions: CR1, read-out: Minimal Inhibitory Conc. (MIC)
[2] = system: Aspergillus fumigatus Saito; test: Antifungal Activity (in Medicinal Field), MIC; assay type: cell-based; conditions: read-out: Minimal Inhibitory Conc. (MIC)
[3] = system: Trichophyton interdigitale; test: Antifungal Activity (in Medicinal Field), MIC; assay type: cell-based; conditions: read-out: Minimal Inhibitory Conc. (MIC)
[4] = system: Candida alubicans GA-24; test: Antifungal Activity (in Medicinal Field), MIC; assay type: cell-based
[5] = system: Trichophyton metagrophytes 530324; test: Antifungal Activity (in Medicinal Field), MIC; assay type: cell-based
[6] = system: Rhizopus nigricans S.N. 32; test: Antifungal Activity (in Industrial Field), MIC; assay type: cell-based; conditions: Rhizopus stolonifer, read-out: Minimal Inhibitory Conc. (MIC)
[7] = system: Aspergillus terreus PQMD 82 j; test: Antifungal Activity (in Industrial Field), MIC; assay type: cell-based; conditions: PQMD82J, read-out: Minimal Inhibitory Conc. (MIC)
[8] = system: Chaetomium globosum ATCC 6205; test: Antifungal Activity (in Industrial Field), MIC; assay type: cell-based; conditions: ATCC6205, read-out: Minimal Inhibitory Conc. (MIC)
[9] = system: Pullularia pullulans IAM F-24; test: Antifungal Activity (in Industrial Field), MIC; assay type: cell-based
[10] = system: Mucor spinescens IAM Mu3; test: Antifungal Activity (in Industrial Field), MIC; assay type: cell-based; conditions: IAMMU3, read-out: Minimal Inhibitory Conc. (MIC)
[11] = system: Trichoderma T-1 ATCC 9645; test: Antifungal Activity (in Industrial Field), MIC; assay type: cell-based; conditions: ATCC9645, read-out: Minimal Inhibitory Conc. (MIC)
[12] = system: Aspergillus flavus ATCC 6275; test: Antifungal Activity (in Industrial Field), MIC; assay type: cell-based; conditions: ATCC6275, read-out: Minimal Inhibitory Conc. (MIC)
[13] = system: Cladosporium herbarum IAM F-517; test: Antifungal Activity (in Industrial Field), MIC; assay type: cell-based; conditions: IAMF517, read-out: Minimal Inhibitory Conc. (MIC)
[14] = system: Penicillium luteum ATCC 9644; test: Antifungal Activity (in Industrial Field), MIC; assay type: cell-based; conditions: Ascospirella lutea, ATCC9644, read-out: Minimal Inhibitory Conc. (MIC)
[15] = system: Aspergillus fumigatus IAM 2621; test: Antifungal Activity (in Industrial Field), MIC; assay type: cell-based; conditions: IAM2621, read-out: Minimal Inhibitory Conc. (MIC)
[16] = system: Pseudomonas syringae pv. tabaci; test: Antibacterial and Antifungal Activities (in Agricultural Field), MIC; assay type: cell-based; conditions: read-out: Minimal Inhibitory Conc. (MIC)
[17] = system: Cochliobolus miyabeanus; test: as above; assay type: cell-based; conditions: Bipolaris oryzae, read-out: Minimal Inhibitory Conc. (MIC)
[18] = system: Gibberella fujikuroi; test: as above; assay type: cell-based; conditions: Fusarium fujikuroi, read-out: Minimal Inhibitory Conc. (MIC)
[19] = system: Botrytis cinerea; test: as above; assay type: cell-based; conditions: read-out: Minimal Inhibitory Conc. (MIC)
[20] = system: Xanthomonas campestris pv. citri; test: as above; assay type: cell-based; conditions: read-out: Minimal Inhibitory Conc. (MIC)
[21] = system: Corynebacterium michiganense; test: as above; assay type: cell-based; conditions: Clavibacter michiganensis; Corynebacterium michiganense; read-out: Minimal Inhibitory Conc. (MIC)
[22] = system: Phricularia oryzae; test: as above; assay type: cell-based; conditions: read-out: Minimal Inhibitory Conc. (MIC)
[23] = system: Glomerella cingulata; test: as above; assay type: cell-based; conditions: Colletotrichum gloeosporioides, read-out: Minimal Inhibitory Conc. (MIC)
[24] = system: Xanthomonas campestris pv. oryzae; test: microbe, parasite or virus in culture; assay type: cell-based; conditions: read-out: Minimal Inhibitory Conc. (MIC)
[25] = system: Alternaria kikuchiana; test: Antibacterial and Antifungal Activities (in Agricultural Field), MIC; assay type: cell-based; conditions: read-out: Minimal Inhibitory Conc. (MIC)
[26] = system: Diaporithe citri; test: as above; assay type: cell-based; conditions: read-out: Minimal Inhibitory Conc. (MIC)
[27] = system: Erwinia carotovora; test: as above; assay type: cell-based; conditions: Pectobacterium carotovorum, read-out: Minimal Inhibitory Conc. (MIC)
[28] = system: Pellicularia filamentosa; test: as above; assay type: cell-based; conditions: read-out: Minimal Inhibitory Conc. (MIC)
[29] = system: Colletotrichum lagenarium; test: as above; assay type: cell-based; conditions: Colletotrichum orbiculare, read-out: Minimal Inhibitory Conc. (MIC)
[30] = system: Fusarium oxysporum f. lycopersici; test: as above; assay type: cell-based; conditions: read-out: Minimal Inhibitory Conc. (MIC)
[31] = system: Trichophyton mentagrophytes; test: Therapeutic experiment on trichophytosis in guinea pigs, visual observation; assay type: in vivo, guinea pigs (White Hartly-strain); conditions: 1% preparation, 0.25 ml once per day, 8 consecutive days
[32] = system: Trichophyton mentagrophytes; test: Reducing culture positive rate of skin slices from infected guinea pigs; assay type: in vivo, guinea pigs (White Hartly-strain); design: concentration or dose not given beside the values; conditions: after 8 days application, non-treated 100
[33] = GA24, Candida alubicans GA-24, read-out: Minimal Inhibitory Conc. (MIC)
[34] = Trichophyton metagrophytes 530324, read-out: Minimal Inhibitory Conc. (MIC)

## Cc1nnnn1CC(I)=C(I)I [1-(2',3',3'-triiodoallyl)-5-methyltetrazole]
[1]
  MIC: 6.25 µg/mL (≈ 12.5 µM)
[2]
  MIC: 0.78 µg/mL (≈ 1.55 µM)
[3]
  MIC: 0.78 µg/mL (≈ 1.55 µM)
[4]; [33]
  MIC: 3.12 µg/mL (≈ 6.22 µM)
[5]; [34]
  MIC: 0.78 µg/mL (≈ 1.55 µM)

## IC#CCn1ncnn1 [2-(1'-iodopropyn-3'-yl)tetrazole]
[6]
  MIC: 6.25 µg/mL (≈ 26.7 µM)
[1]
  MIC: 0.78 µg/mL (≈ 3.33 µM)
[7]
  MIC: 0.78 µg/mL (≈ 3.33 µM)
[8]
  MIC: 25 µg/mL (≈ 107 µM)
[9]; IAMF24, Pullularia pullulans IAM F-24, read-out: Minimal Inhibitory Conc. (MIC)
  MIC: 6.25 µg/mL (≈ 26.7 µM)
[10]
  MIC: 3.13 µg/mL (≈ 13.4 µM)
[11]
  MIC: 3.13 µg/mL (≈ 13.4 µM)
[12]
  MIC: 6.25 µg/mL (≈ 26.7 µM)
[2]
  MIC: 1.56 µg/mL (≈ 6.67 µM)
[3]
  MIC: 1.56 µg/mL (≈ 6.67 µM)
[4]; Candida, GA24, read-out: Minimal Inhibitory Conc. (MIC)
  MIC: 3.12 µg/mL (≈ 13.3 µM)
[13]
  MIC: 3.13 µg/mL (≈ 13.4 µM)
[14]
  MIC: 3.13 µg/mL (≈ 13.4 µM)
[5]; Trichophyton, 530324, read-out: Minimal Inhibitory Conc. (MIC)
  MIC: 1.56 µg/mL (≈ 6.67 µM)
[15]
  MIC: 25 µg/mL (≈ 107 µM)

## CC(=O)Nc1nnn(CC(I)=C(I)I)n1 [2-(2',3',3'-triiodoallyl)-5-acetylaminotetrazole]
[1]
  MIC: 100 µg/mL (≈ 184 µM)
[2]
  MIC: 12.5 µg/mL (≈ 22.9 µM)
[3]
  MIC: 3.12 µg/mL (≈ 5.73 µM)
[4]; [33]
  MIC: 100 µg/mL (≈ 184 µM)
[5]; [34]
  MIC: 3.12 µg/mL (≈ 5.73 µM)

## Cc1nnn(CC(I)=C(I)I)n1 [2-(2',3',3'-triiodoallyl)-5-methyltetrazole]
[16]
  MIC: > 100 µg/mL
[6]
  MIC: 1.56 µg/mL (≈ 3.11 µM)
[1]
  MIC: 1.56 µg/mL (≈ 3.11 µM)
[17]
  MIC: 6.25 µg/mL (≈ 12.5 µM)
[7]
  MIC: 0.39 µg/mL (≈ 0.777 µM)
[8]
  MIC: 6.25 µg/mL (≈ 12.5 µM)
[9]; IAMF24, read-out: Minimal Inhibitory Conc. (MIC)
  MIC: 3.13 µg/mL (≈ 6.24 µM)
[10]
  MIC: 1.56 µg/mL (≈ 3.11 µM)
[18]
  MIC: 0.78 µg/mL (≈ 1.55 µM)
[11]
  MIC: 6.25 µg/mL (≈ 12.5 µM)
[12]
  MIC: 1.56 µg/mL (≈ 3.11 µM)
[19]
  MIC: 0.39 µg/mL (≈ 0.777 µM)
[20]
  MIC: 50 µg/mL (≈ 99.6 µM)
[21]
  MIC: 25 µg/mL (≈ 49.8 µM)
[2]
  MIC: 0.19 µg/mL (≈ 0.379 µM)
[3]
  MIC: 0.19 µg/mL (≈ 0.379 µM)
[22]
  MIC: 3.13 µg/mL (≈ 6.24 µM)
[23]
  MIC: 0.39 µg/mL (≈ 0.777 µM)
[24]
  MIC: 6.25 µg/mL (≈ 12.5 µM)
[4]; [33]
  MIC: 0.78 µg/mL (≈ 1.55 µM)
[25]
  MIC: 1.56 µg/mL (≈ 3.11 µM)
[13]
  MIC: 6.25 µg/mL (≈ 12.5 µM)
[26]
  MIC: 0.78 µg/mL (≈ 1.55 µM)
[27]
  MIC: > 100 µg/mL
[28]
  MIC: > 100 µg/mL
[29]
  MIC: 0.78 µg/mL (≈ 1.55 µM)
[14]
  MIC: 6.25 µg/mL (≈ 12.5 µM)
[5]; [34]
  MIC: 0.19 µg/mL (≈ 0.379 µM)
[30]
  MIC: 3.13 µg/mL (≈ 6.24 µM)
[15]
  MIC: 1.56 µg/mL (≈ 3.11 µM)

## IC(I)=C(I)Cn1nnc(-c2ccccc2)n1 [2-(2',3',3'-triiodoallyl)-5-phenyltetrazole]
[1]
  MIC: 12.5 µg/mL (≈ 22.2 µM)
[2]
  MIC: 6.25 µg/mL (≈ 11.1 µM)
[3]
  MIC: 3.12 µg/mL (≈ 5.53 µM)
[4]; [33]
  MIC: 12.5 µg/mL (≈ 22.2 µM)
[5]; [34]
  MIC: 1.56 µg/mL (≈ 2.77 µM)

## Clc1ccccc1C(c1ccccc1)(c1ccccc1)n1ccnc1 [chlotrimazol, 1-(O-chloro-α,α-diphenylbenzyl)imidazole, reference compound]
[31]
  Therapeutic Effect: Desquamation: effective
  Therapeutic Effect: Thickening: effective
[32]; 3 days culture
  Reducing Culture Positive Rate: 75%
[32]; 5 days culture
  Reducing Culture Positive Rate: 96%
[32]; 7 days culture
  Reducing Culture Positive Rate: 96%

## O=[N+]([O-])c1c(Cl)cccc1-c1c[nH]cc1Cl [pyrrolnitrin, 3-chloro-4-(2'-nitro-3'-chlorophenyl)pyrrole, reference compound]
[31]
  Therapeutic Effect: Thickening: effective
[32]; 3 days culture
  Reducing Culture Positive Rate: 62%
[32]; 5 days culture
  Reducing Culture Positive Rate: 87%
[32]; 7 days culture
  Reducing Culture Positive Rate: 87%
